Data from patent US7345065B2, “Methods and compositions for alleviating pain” (Allergan, Inc., priority 2002, dated 2008).

Legend:
[1] = test system: α-2B heterozygous (−/+) and homozygous (−/−) knockout mice; experiment: Sulprostone sensitized pain (allodynia), α-2B knockout mice; type: in vivo, mouse; conditions: intraperitoneal; heterozygous and homozygous α-2B knockout; clonidine 500 ug/kg, Compound 3 100 ug/kg
rat α-2B (RNG gene) = molecular target: T1, rat α-2B (RNG gene) (Rattus norvegicus, UniProt P19328); experiment: RSAT assay, α-2B receptor; type: cell-based; conditions: for EC50: NA = not active (EC50 ≧ 10,000); for fold greater activity at the α-2B receptor than the α-2C receptor: RSAT; for Emax: read-out: % efficacy 2B
T1 construct: expressed in transfected cells; host or cells: NIH-3T3
T1 sequence (P19328 1-453): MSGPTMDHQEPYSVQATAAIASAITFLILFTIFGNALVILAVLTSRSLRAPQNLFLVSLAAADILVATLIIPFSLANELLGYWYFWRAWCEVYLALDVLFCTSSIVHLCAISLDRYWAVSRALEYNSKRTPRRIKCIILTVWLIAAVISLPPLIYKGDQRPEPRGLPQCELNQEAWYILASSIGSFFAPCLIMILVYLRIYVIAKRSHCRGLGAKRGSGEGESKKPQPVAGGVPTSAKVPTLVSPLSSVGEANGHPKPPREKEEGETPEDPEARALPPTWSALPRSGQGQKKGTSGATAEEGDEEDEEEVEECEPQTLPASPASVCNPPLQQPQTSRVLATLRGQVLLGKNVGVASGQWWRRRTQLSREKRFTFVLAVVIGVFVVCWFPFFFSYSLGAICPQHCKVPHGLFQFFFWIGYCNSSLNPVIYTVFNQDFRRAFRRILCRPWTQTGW
Description: (§1) Agonist and antagonist activity, including selectivity and specificity, can be characterized using any of a variety of routine assays, including, without limitation, Receptor Selection and Amplification Technology (RSAT) assays (Messier et al., Pharmacol. Toxicol. 76:308-11 (1995); Conklin et al., Nature 363:274-6 (1993)); cyclic AMP assays (Shimizu et al., J. Neurochem. 16:1609-1619 (1969)); and cytosensor microphysiometry assays (Neve et al., J. Biol. Chem. 267:25748-25753 (1992)). Such assays generally are performed using cells that naturally express only a single α-adrenergic receptor subtype, or using transfected cells expressing a single recombinant α-adrenergic receptor subtype. The adrenergic receptor can be a human receptor or homolog thereof having a similar pharmacology. As disclosed herein, RSAT assays were performed using cells transiently transfected with human α-2A (c10 gene); rat α-2B (RNG gene); human α-2C (c4 gene); bovine α-1A; hamster α-1B; and rat α-1D.
(§2) The RSAT assay measures receptor-mediated loss of contact inhibition resulting in selective proliferation of receptor-containing cells in a mixed population of confluent cells. The increase in cell number is assessed with an appropriate detectable marker gene such as β-galactosidase, if desired, in a high throughput or ultra high throughput assay format. Receptors that activate the G protein, Gq, elicit the proliferative response. α-adrenergic receptors, which normally couple to Gi, activate the RSAT response when coexpressed with a hybrid Gq protein containing a Gi receptor recognition domain, designated Gq/i5.
As an example, an RSAT assay can be performed essentially as follows. NIH-3T3 cells are plated at a density of 2×10^6 cells in 15 cm dishes and maintained in Dulbecco's modified Eagle's medium supplemented with 10% calf serum. One day later, cells are cotransfected by calcium phosphate precipitation with mammalian expression plasmids encoding p-SV-β-galactosidase (5-10 μg), receptor (1-2 μg) and G protein (1-2 μg). Carrier DNA, for example 40 μg salmon sperm DNA, also can be included to increase transfection efficiency. Fresh media is added on the following day; one to two days later, cells are harvested and frozen in 50 assay aliquots. Transfected cells are thawed, and 100 μl of cells added to 100 μl aliquots of compound to be tested, with various concentrations assayed in triplicate, for example, in 96-well plates. Incubation continues for 72 to 96 hours at 37°. After washing with phosphate-buffered saline, β-galactosidase activity is determined by adding 200 μl of chromogenic substrate (3.5 mM O-nitrophenyl-β-D-galactopyranoside/0.5% NP-40 in phosphate buffered saline), incubating overnight at 30°, and measuring optical density at 420 nm. The absorbancy is a measure of enzyme activity, which depends on cell number and reflects receptor-mediated cell proliferation. The EC50 and maximal effect (efficacy) of each drug at each receptor is determined.

bovine α-1A = molecular target: T2, bovine α-1A (Bos taurus, UniProt P18130); experiment: RSAT assay, α-1A receptor; type: cell-based; conditions: NA = not active (EC50 ≧ 10,000)
T2 construct: expressed in transfected cells; host or cells: NIH-3T3
T2 sequence (P18130 1-466): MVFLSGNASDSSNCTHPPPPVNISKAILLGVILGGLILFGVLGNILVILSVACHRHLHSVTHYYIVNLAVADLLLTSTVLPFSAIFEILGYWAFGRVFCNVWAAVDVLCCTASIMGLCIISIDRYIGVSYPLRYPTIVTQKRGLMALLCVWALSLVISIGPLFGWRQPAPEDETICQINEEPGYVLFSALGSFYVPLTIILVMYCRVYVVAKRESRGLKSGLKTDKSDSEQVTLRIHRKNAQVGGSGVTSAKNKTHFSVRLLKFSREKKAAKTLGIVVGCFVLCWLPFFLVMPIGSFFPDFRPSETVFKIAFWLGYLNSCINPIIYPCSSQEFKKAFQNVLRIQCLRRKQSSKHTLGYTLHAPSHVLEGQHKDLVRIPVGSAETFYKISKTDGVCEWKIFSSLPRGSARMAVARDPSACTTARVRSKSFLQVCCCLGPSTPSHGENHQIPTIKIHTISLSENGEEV
Description: as §1, with “The adrenergic receptor can be a human receptor or homolog thereof having a similar pharmacology. As disclosed herein, RSAT assays were performed using cells transiently transfected with human α-2A (c10 gene); rat α-2B (RNG gene); human α-2C (c4 gene); bovine α-1A; hamster α-1B; and rat α-1D.” left out
The RSAT assay measures receptor-mediated loss of contact inhibition resulting in selective proliferation of receptor-containing cells in a mixed population of confluent cells. The increase in cell number is assessed with an appropriate detectable marker gene such as β-galactosidase, if desired, in a high throughput or ultra high throughput assay format. […]
As an example, an RSAT assay can be performed essentially as follows. […] After washing with phosphate-buffered saline, β-galactosidase activity is determined by adding 200 μl of chromogenic substrate (3.5 mM O-nitrophenyl-β-D-galactopyranoside/0.5% NP-40 in phosphate buffered saline), incubating overnight at 30°, and measuring optical density at 420 nm. […]

rat α-1D = molecular target: T3, rat α-1D (Rattus norvegicus, UniProt P23944); experiment: RSAT assay, α-1D receptor; type: cell-based; conditions: NA = not active (EC50 ≧ 10,000)
T3 construct: expressed in transfected cells; host or cells: NIH-3T3
T3 sequence (P23944 1-561): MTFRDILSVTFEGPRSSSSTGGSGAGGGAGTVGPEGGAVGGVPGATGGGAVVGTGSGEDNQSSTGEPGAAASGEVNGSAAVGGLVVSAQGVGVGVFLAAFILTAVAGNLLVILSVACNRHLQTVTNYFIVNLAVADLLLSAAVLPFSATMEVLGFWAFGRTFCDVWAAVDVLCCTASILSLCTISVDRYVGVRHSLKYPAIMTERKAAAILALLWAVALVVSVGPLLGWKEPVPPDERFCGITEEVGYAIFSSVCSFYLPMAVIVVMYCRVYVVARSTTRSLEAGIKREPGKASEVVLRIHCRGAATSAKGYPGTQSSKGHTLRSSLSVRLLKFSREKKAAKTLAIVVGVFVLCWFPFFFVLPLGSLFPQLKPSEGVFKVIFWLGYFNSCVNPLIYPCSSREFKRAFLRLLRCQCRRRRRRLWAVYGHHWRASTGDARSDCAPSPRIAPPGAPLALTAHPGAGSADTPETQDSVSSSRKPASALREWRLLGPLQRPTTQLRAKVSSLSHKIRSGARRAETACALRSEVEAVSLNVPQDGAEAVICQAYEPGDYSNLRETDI
Description: as §1, §2
As an example, an RSAT assay can be performed essentially as follows. […] After washing with phosphate-buffered saline, β-galactosidase activity is determined by adding 200 μl of chromogenic substrate (3.5 mM O-nitrophenyl-β-D-galactopyranoside/0.5% NP-40 in phosphate buffered saline), incubating overnight at 30°, and measuring optical density at 420 nm. […] The EC50 and maximal effect (efficacy) of each drug at each receptor is determined.

`O=C1c2ccccc2CCC1Cc1c[nH]c(=S)[nH]1` (racemic) [Compound 3] was tested, and the “analgesic effect in α-2B knockout mice” value [1] was “not analgesic”, the EC50 (rat α-2B (RNG gene)) was 24 nM and the “fold greater activity at the α-2B receptor than the α-2C receptor” value (rat α-2B (RNG gene)) was “about 100 fold”. The Emax (rat α-2B (RNG gene)) was 90%, the EC50 (bovine α-1A) was greater than 2000 nM and the EC50 (rat α-1D) was greater than 2000 nM.
`S=c1[nH]cc(CC2CC=CC2)[nH]1` [Compound 11] was tested, and the EC50 (rat α-2B (RNG gene)) was 42 nM, the Emax (rat α-2B (RNG gene)) was 80% and the EC50 (bovine α-1A) was 1710 nM. It also gave an EC50 (rat α-1D) greater than 2000 nM.
`O=c1[nH]cc(CC2CCc3cc(F)ccc32)[nH]1` (centres unmarked) [Compound 4] was tested, and the EC50 (rat α-2B (RNG gene)) was 15 nM, the “fold greater activity at the α-2B receptor than the α-2C receptor” value (rat α-2B (RNG gene)) was “more than 10 fold” and the Emax (rat α-2B (RNG gene)) was 100%. It also gave an EC50 (rat α-1D) greater than 2000 nM.
